Measurements published in US20070265164A1, “Active Substances for Increasing Pathogenic Defense in Plants and Methods for the Detection Thereof” (Bayer Cropscience GmbH, priority 2004, published 2007).

Key:
Type in all cases: in vivo
Set-up in all cases: fold induction: dose or concentration left out as unconfirmed
Settings in all cases: for fold induction: rates of Table 1 (S7 500)
[1] = tested on: HI02E21u_s_at, Lipoxygenase (EC 1.13.11.12); assay: GEP, barley DNA chip, probe set 1.2
Protocol: (§1) Barley plants (cv. Baronesse) were grown in compost-filled pots (diameter: 10 cm) for 10 days in a controlled-environment cabinet under defined light, humidity and temperature conditions (white light, 70% atmospheric humidity, 24° C.). At the time of spray application, the seedlings were approximately 15 cm in size. The test substances selected in this example were molecules which differ markedly in their structure and which have a well documented pronounced safener effect, and other molecules which are known from the literature to have an effect on plant stress and pathogen tolerance (Table 1). The substances were prepared as stock solutions in DMSO (dimethyl sulfoxide) at c=10 mg/ml). This was used for preparing dilutions in water supplemented with 0.2% Agrotin (comprises polyvinyl alcohol, silicones, polysaccharides and pH regulators, manufacturer: Bayer CropScience AG, Monheim, Germany), as wetter, to give the application rates shown in the table. The amount of liquid for the spray application was 800 μl per pot, corresponding to 800 l/ha. For each 800 μl of spray mixture, 16 μl of EC premix: diacetone alcohol=1:6 were additionally added as formulation auxiliaries. The substances listed in Table 1 were applied to the leaves by means of a pneumatic spray pistol. Each substance was sprayed as 2 dosages, and all experiments were carried out as replicates (2 pots per substance). Sprayings with blank formulation without active ingredient were carried out as controls. After 6 hours, the leaves were harvested, frozen in liquid nitrogen and stored at −80° C. until further use. The labeled RNA probes for the DNA chip hybridization were prepared as described in the protocols (Expression Analysis, Technical Manual) from Affymetrix (Affymetrix Inc., 3380 Central Expressway, Santa Clara, Calif., USA). First, total RNA was isolated from in each case 500 mg of the harvested leaves. In each case 10 μg of total RNA was used for the first-strand and second-strand cDNA synthesis. The cDNA was amplified with T7 polymerase and simultaneously labeled with biotin-UTP. In each case, 20 μg of this biotinylated cDNA was employed for the hybridization of the barley genome array (Gene Chip Barleyl, order No.: 511012) from Affymetrix. This DNA microarray comprises DNA sequences of 22 840 genes which are composed of a total of 400 000 EST sequences. Thereafter, the DNA microarrays were washed in the Affymetrix Fluidics Station, stained with streptavidin/phycoerythrin (Molecular Probes, P/N S-866) and scanned with the matching Agilent Laser Scanner (Agilent Gene Array Scanner). The fluorescent data obtained were analyzed with the software Microarray Suite 5 from Affymetrix. After the quality had been checked, all DNA chip analyses were stored in a database. To determine the relative expression values for genes (induction factors, repression factors), test and control chips were compared with each other, and the scoring function set by the Affymetrix software was used as the basis. The 2 biological replications of one experiment were compared in each case with 2 control chips (blank formulation), and the 4 expression values obtained for each gene were used for calculating the median. These medians are shown in the results tables as induction factors. Similarity comparisons of expression profiles from different experiments and cluster analyses were carried out using the software GeneMaths 1.5 from Applied Maths (Applied Maths, Keistraat 120, 9830 Sint-Martens-Latem, Belgium).
(§2) Gene groups from specific metabolic pathways and signal transduction chains were put together by key word search in the annotations, of the genes, which were also provided by Affymetrix, and by Blast analyses (homology comparisons) of the DNA target sequences, i.e. of the positive sequence (identified on the basis of a modified expression profile) identified on the DNA chip, using gene sequences from other organisms, preferably plant organisms, with characterized functions. […]

[2] = tested on: Contig3097_at, Allene oxide synthase; assay: GEP, barley DNA chip, probe set 1.3
Protocol: as §1, §2

[3] = tested on: Contig 4986_at, Allene oxide cyclase; assay: GEP, barley DNA chip, probe set 1.5
Protocol: as §1, §2

[4] = tested on: Contig9556_at, 12-oxophytodienoate reductase 3; assay: GEP, barley DNA chip, probe set 1.8
Protocol: as §1, §2

[5] = tested on: Contig2305_at, Methyljasmonate inducible lipoxygenase; assay: GEP, barley DNA chip, probe set 1.14
Protocol: as §1, §2

[6] = tested on: Contig3096_s_at, Allene oxide synthase; assay: GEP, barley DNA chip, probe set 1.16
Protocol: as §1, §2

[7] = tested on: Contig13413_at, Similar to lipases; assay: GEP, barley DNA chip, probe set 1.17
Protocol: as §1, §2

[8] = tested on: Contig2330_x_at, 12-oxophytodienoic acid reductase; assay: GEP, barley DNA chip, probe set 1.19
Protocol: as §1, §2

[9] = tested on: Contig2337_at, 12-oxophytodienoate reductase (OPR1); assay: GEP, barley DNA chip, probe set 1.20
Protocol: as §1, §2

[10] = tested on: Contig88_x_at, Putative proteinase inhibitor; assay: GEP, barley DNA chip, probe set 2.3
Protocol: as §1, §2

[11] = tested on: HD07M22r_s_at, Proteinase-Inhibitor (pir S71555, barley); assay: GEP, barley DNA chip, probe set 2.4
Protocol: as §1, §2

[12] = tested on: Contig8905_at, Xytanase inhibitor protein; assay: GEP, barley DNA chip, probe set 3.1
Protocol: as §1, §2

[13] = tested on: Contig5369_at, Pathogen-related protein; assay: GEP, barley DNA chip, probe set 4.2
Protocol: as §1, §2

[14] = Hordeum vulgare, topical, barley leaves 6 h after spray application, median induction factor vs control, read-out: Expression value, 1.2 HI02E21u_s_at
[15] = Hordeum vulgare, topical, barley leaves 6 h after spray application, median induction factor vs control, read-out: Expression value, 1.3 Contig3097_at
[16] = Hordeum vulgare, topical, barley leaves 6 h after spray application, median induction factor vs control, read-out: Expression value, 1.5 Contig 4986_at
[17] = Hordeum vulgare, topical, barley leaves 6 h after spray application, median induction factor vs control, read-out: Expression value, 1.8 Contig9556_at
[18] = Hordeum vulgare, topical, barley leaves 6 h after spray application, median induction factor vs control, read-out: Expression value, 1.14 Contig2305_at
[19] = Hordeum vulgare, topical, barley leaves 6 h after spray application, median induction factor vs control, read-out: Expression value, 1.16 Contig3096_s_at
[20] = Hordeum vulgare, topical, barley leaves 6 h after spray application, median induction factor vs control, read-out: Expression value, 1.17 Contig13413_at
[21] = Hordeum vulgare, topical, barley leaves 6 h after spray application, median induction factor vs control, read-out: Expression value, 1.19 Contig2330_x_at
[22] = Hordeum vulgare, topical, barley leaves 6 h after spray application, median induction factor vs control, read-out: Expression value, 1.20 Contig2337_at
[23] = Hordeum vulgare, topical, barley leaves 6 h after spray application, median induction factor vs control, read-out: Expression value, 2.3 Contig88_x_at
[24] = Hordeum vulgare, topical, barley leaves 6 h after spray application, median induction factor vs control, read-out: Expression value, 2.4 HD07M22r_s_at
[25] = Hordeum vulgare, topical, barley leaves 6 h after spray application, median induction factor vs control, read-out: Expression value, 3.1 Contig8905_at
[26] = Hordeum vulgare, topical, barley leaves 6 h after spray application, median induction factor vs control, read-out: Expression value, 4.2 Contig5369_at
[27] = barley leaves 6 h after spray application, rates of Table 1 (150 g a.i./ha, S7 500), median induction factor vs control

NC(=O)c1ccc(C(F)(F)F)nc1O [S6]
2.55: fold induction [8, 21]
1: fold induction [1, 14] | fold induction [2, 15] | fold induction [3, 16] | fold induction [4, 17] | fold induction [5, 18] | fold induction [6, 19] | fold induction [7, 20] | fold induction [9, 22] | fold induction [10, 23] | fold induction [13, 26]
5.1: fold induction [11, 24]
2.45: fold induction [12, 25]

CCOC(=O)C(Oc1ccc(Cl)c2cccnc12)C(=O)OCC [S5]
1: fold induction [1, 14] | fold induction [2, 15] | fold induction [3, 16] | fold induction [4, 17] | fold induction [5, 18] | fold induction [6, 19] | fold induction [7, 20] | fold induction [8, 21] | fold induction [9, 22] | fold induction [10, 23] | fold induction [13, 26]
7.84: fold induction [11, 24]
3.01: fold induction [12, 25]

CCCCCC(C)OC(=O)COc1ccc(Cl)c2cccnc12 (centres unmarked) [S4, Cloquintocet-mexyl]
1: fold induction [1, 14] | fold induction [2, 15] | fold induction [3, 16] | fold induction [4, 17] | fold induction [5, 18] | fold induction [6, 19] | fold induction [7, 20] | fold induction [9, 22] | fold induction [10, 23] | fold induction [11, 24] | fold induction [13, 26]
2.73: fold induction [12, 25]
2.83: fold induction [8, 21]

COC(=O)C1=NN(c2ccc(Cl)cc2Cl)C(C)(C(=O)OC)C1 (centres unmarked) [S1, Mefenpyr-dimethyl]
4.03: fold induction [8, 21]
2.35: fold induction [13, 26]
1: fold induction [1, 14] | fold induction [2, 15] | fold induction [3, 16] | fold induction [4, 17] | fold induction [5, 18] | fold induction [6, 19] | fold induction [7, 20] | fold induction [10, 23]
6.32: fold induction [11, 24]
3.1: fold induction [12, 25]
4.89: fold induction [9, 22]

O=C(NO)c1ccccc1O [S7, Salicyl hydroxamate]
2.06 x times: Expression value, 1.16 Contig3096_s_at [6, 27]
41.07 x times: Expression value, 1.14 Contig2305_at [5, 27]
1.00 x times: Expression value, 1.2 HI02E21u_s_at [1, 27] | Expression value, 1.3 Contig3097_at [2, 27] | Expression value, 1.5 Contig 4986_at [3, 27] | Expression value, 1.8 Contig9556_at [4, 27] | Expression value, 1.17 Contig13413_at [7, 27] | Expression value, 1.19 Contig2330_x_at [8, 27] | Expression value, 1.20 Contig2337_at [9, 27] | Expression value, 2.4 HD07M22r_s_at [11, 27] | Expression value, 3.1 Contig8905_at [12, 27] | Expression value, 4.2 Contig5369_at [13, 27]
21.86 x times: Expression value, 2.3 Contig88_x_at [10, 27]

O=C(O)C1=NN(c2ccc(Cl)cc2Cl)C(c2ccc(F)cc2)C1 (centres unmarked) [S2]
2.39: fold induction [8, 21]
2.53: fold induction [12, 25]
1: fold induction [1, 14] | fold induction [2, 15] | fold induction [3, 16] | fold induction [4, 17] | fold induction [5, 18] | fold induction [6, 19] | fold induction [7, 20] | fold induction [9, 22] | fold induction [10, 23] | fold induction [11, 24] | fold induction [13, 26]

CSC(=O)c1cccc2nnsc12 [S8, Acibenzolar-S-methyl]
2.68: fold induction [6, 19]
1: fold induction [1, 14] | fold induction [3, 16] | fold induction [4, 17] | fold induction [8, 21] | fold induction [9, 22] | fold induction [11, 24] | fold induction [12, 25] | fold induction [13, 26]
22.9: fold induction [10, 23]
2.11: fold induction [2, 15]
2.17: fold induction [7, 20]
81.6: fold induction [5, 18]

O=C(O)c1cc(Cl)nc(Cl)c1 [S9]
3.03: fold induction at 150 g/ha ([1]; Hordeum vulgare, topical, 6 h, read-out: Expression value, 1.2 HI02E21u_s_at)
1: fold induction at 150 g/ha ([2]; Hordeum vulgare, topical, 6 h, read-out: Expression value, 1.3 Contig3097_at) | fold induction at 150 g/ha ([3]; Hordeum vulgare, topical, 6 h, read-out: Expression value, 1.5 Contig 4986_at) | fold induction at 150 g/ha ([4]; Hordeum vulgare, topical, 6 h, read-out: Expression value, 1.8 Contig9556_at) | fold induction at 150 g/ha ([6]; Hordeum vulgare, topical, 6 h, read-out: Expression value, 1.16 Contig3096_s_at) | fold induction at 150 g/ha ([7]; Hordeum vulgare, topical, 6 h, read-out: Expression value, 1.17 Contig13413_at) | fold induction at 150 g/ha ([8]; Hordeum vulgare, topical, 6 h, read-out: Expression value, 1.19 Contig2330_x_at) | fold induction at 150 g/ha ([9]; Hordeum vulgare, topical, 6 h, read-out: Expression value, 1.20 Contig2337_at) | fold induction at 150 g/ha ([11]; Hordeum vulgare, topical, 6 h, read-out: Expression value, 2.4 HD07M22r_s_at) | fold induction at 150 g/ha ([13]; Hordeum vulgare, topical, 6 h, read-out: Expression value, 4.2 Contig5369_at)
4.59: fold induction at 150 g/ha ([10]; Hordeum vulgare, topical, 6 h, read-out: Expression value, 2.3 Contig88_x_at)
12.6: fold induction at 150 g/ha ([5]; Hordeum vulgare, topical, 6 h, read-out: Expression value, 1.14 Contig2305_at)
2.53: fold induction at 150 g/ha ([12]; Hordeum vulgare, topical, 6 h, read-out: Expression value, 3.1 Contig8905_at)
